From patent publication US11993660B2, “Chimeric polypeptides and methods of altering the membrane localization of the same” (Cell Design Labs, Inc., priority 2017, dated 2024)

Tested on: Primary human T cells expressing FMC63-CAR with ERa LBD fusion
Assay: Brefeldin A block of ligand-induced surface trafficking
Type: cell-based
Details: 1 uM pre-treatment; then 500 ng/mL 4-OHT two hours
Description: Primary human T cells expressing FMC63-CAR with ERa LBD fusion were left untreated or were treated with 500 ng/mL 4-OHT ligand for two hours to induce surface expression of the CAR. Prior to 4-OHT treatment, half the cells were pre-treated with 1 uM Brefeldin A (FIG. 12, bottom two panels) to inhibit protein export from the Golgi.

## C[C@H]1CCC/C=C/[C@@H]2C[C@H](O)C[C@H]2[C@H](O)/C=C/C(=O)O1 [Brefeldin A]
  effect on 4-OHT-induced surface protein expression: prevented 4-OHT-induced increase in surface protein expression
